Measurements from patent US20180072675A1, “ANTIMICROBIAL PYRIDINOHYDRAZIDE AND HYDRAZOMETHYLPYRIDINE-BASED AGENTS” (Board of Supervisors of Louisiana State University and …, priority 2015, published 2018).
Values after ≈ are worked out from the molar mass of the structure shown. “Also recorded” adds a separate entry of the source. Where two headings read alike, the source gives them in different places.

What was measured:
Candida strain TW17 = assay: Time-kill assay; format: cell-based, Candida albicans; conditions: for Cidal vs Static: four times the MIC for TW17, 48 h; for colonies observed in time-kill assay: after 24 h
Experimental: FIG. 9 illustrates time-kill assays, for representative analogs that were active against the azole-resistant TW17, to determine the cidal or static nature of the analog tested. 100 μl of each sample was spread onto YM agar plates with a sterile bent spreading rod. Plates were incubated at 35° C. overnight and colonies were then counted on each plate.
One of the objectives of this study was to determine the cidal or static nature of the analogs that were active against such as TW17, the azole-resistant clinical isolate. Azoles affect Candida spp. by inhibiting ergosterol biosynthesis, and ultimately prevent their reproduction. This effect has led to the classification of azoles as fungistats. Determining the fungistatic or fungicidal nature of the synthesized compounds of the present disclosure allows a comparison to azoles, in addition to improving the understanding of how the structural motifs might lend toward an alternate mechanism of action. Therefore, time-kill assays were performed using the representative analogs that were active against the azole-resistant TW17 at concentrations at or below 8 μg/mL.
Solid drugs were dissolved in DMSO to a concentration of 10 mg/ml. This stock solution was then further diluted in water to the desired experimental concentration, determined to be four times that of the MIC for the Candida strain TW17 (as reported in the Tables).
Individual colonies of TW17 were suspended in 5 ml of sterile water and adjusted to achieve a McFarland reading between 0.08 and 0.12. The inoculum was then further diluted in sterile water at a ratio of 1:100. Three […] tissue culture tubes were prepared by combining 2.5 ml of above diluted inoculum, 21.7 ml of HEPES buffered RPMI-1640 media, and 800 μl of experimental drug dilution. A “Growth Control” tube was prepared by combining 2.5 ml of inoculum, 21.7 HEPES buffered RPMI-1640 media, and 800 μl of water-DMSO solution equal to the DMSO concentration of the experimental drug dilution. A “Sterile Control” tube was prepared by combining 24.2 ml of HEPES-buffered RPMI-1640 media and 800 μl of water-DMSO solution as in the “Growth Control”. All tubes were incubated for 48 hours at 35° C., 50 rpm. 500 μl samples were taken from the tubes at time points of predetermined intervals during this incubation.
Time points for the “Kill-Curve” and “Growth Control” tubes were taken at 0, 1, 2, 4, 6, 8, 24, and 48 h after the start of incubation. Time points for “Sterile Control” were taken at 0 and 48 hours. Each time point sample was serially diluted 1:10 in sterile 0.9% NaCl solution up to 5 times. 100 μl of each sample was spread onto YM agar plates with a sterile bent spreading rod. Plates were incubated at 35° C. overnight and colonies were then counted on each plate. Colonies on plates from diluted time points were used to estimate uncountable undiluted samples. The number of colonies in undiluted samples was estimated to be 10^n times greater than the diluted sample, where n was the number of dilutions made.

[1] = test system: Candida glabrata (ATCC Accession No. 48435); assay: MIC80 fungal growth inhibition, C. glabrata ATCC 48435; format: cell-based; conditions: for MIC80: Nakaseomyces glabratus
Experimental: (§1) The antifungal activity of the pyridinohydrazide and hydrazomethylpyridine derivatives described in the s were evaluated in vitro using Candida albicans (ATCC Accession No. 10231) and Candida glabrata (ATCC Accession No. 48435). In addition, the compounds were evaluated for activity against two previously-described clinical isolates of C. albicans known to have developed azole-resistance. These isolates were obtained over a two year period from a single AIDS patient and the development of the azole-resistance mechanisms have been extensively characterized (White T C. Antimicrob. Agents Chemother. (1997) 41: 1482-1487). MIC assays were performed on the clinical isolates 1 and 17 (annotated TW1 and TW17, respectively), where isolate 1 was used as an azole-susceptible control and isolate 17 was considered azole-resistant. All assays were done in accordance with NCCLS reference documents (Clinical Laboratory and Standards Institute. Reference method for Broth Dilution Antifungal Susceptibility Testing of Yeasts: Approved Standard. M27-A3 2010; 28). The results of these screenings are summarized in Tables 1-9 (Examples 20-27) as the minimum concentrations that inhibited more than 80% of fungal growth (MIC80) as compared to positive controls containing 1% DMSO. Assays were performed in HEPES-buffered RPMI-1640 media. All MIC screens used a visual scoring method as opposed to spectroscopic analysis, due to the altered absorbance spectra of many of the compounds.

[2] = test system: C. albicans clinical isolate 17 (TW17); assay: MIC80 fungal growth inhibition, clinical isolate TW17; format: cell-based, Candida albicans; conditions: for MIC80: Candida albicans, read-out: MIC80 TW17
Experimental: as §1

Vero (kidney) cells = assay: Mammalian cell toxicity, Promega CellTiter 96, kidney cells; format: cell-based; conditions: 24 h
Experimental: (§2) Cytotoxicity was determined using non-cancerous Vero cells (kidney-african green monkey) and liver cells (Hep-2G) in accordance with Promega CellTiter 96 Non-Radioactive Cell Proliferation Assay (cat # G4000). Compounds were diluted in media and all assays were done in triplicate. Average values are presented, with ±SD. Cells were incubated in the presence of the compounds for 24 h at 37° C. and 5% CO2. Tetrazolium dye solution was added to each well and allowed to incubate for 1-4 h. Solubilization/Stop solution was added and allowed to sit at room temperature for 1 h. Formazan product was scored spectrophotometrically with an automatic plate reader set at 570 nm. Positive control wells for cell death were briefly treated with 0.1% saponin, immediately prior to the addition of dye solution. Wells containing 1% DMSO and no drug were used as a negative control and the average absorbance at 570 nm were set to 100%. The percent of cells viable were calculated as a ratio between the average absorption at 570 nm of the drug containing wells/average absorption at 570 nm of the control (no drug). Ratios were multiplied by 100 to give the values as a percentage as expressed on the y-axis.
(§3) Cytotoxicity studies were performed in accordance with Promega CellTiter 96 Non-RadioactivCell Proliferation Assay (cat #G4000). All cytotoxicity studies used a negative control (wells of either kidney or liver cells containing 1% DMSO but lacking the analog), a positive control (wells of either kidney or liver cells treated with the known cytotoxic agent, saponin) and the serial dilutions of the novel analogs. All control (negative) wells were normalized to 100% viable cells to accurately show the percentage of either liver or kidney cells that remained alive and viable following either overnight incubation with the analogs or 5-minute treatment with 0.1% saponin.

Hep G2 (liver) cells = assay: Mammalian cell toxicity, Promega CellTiter 96, liver cells; format: cell-based; conditions: 24 h
Experimental: as §2, §3

Candida spp. = assay: MIC studies, statements pooled over several isolates; format: cell-based, Candida albicans, Candida glabrata; conditions: for antifungal activity (in words): overall over the isolates tested
Experimental: as §1

[3] = ATCC48435, Azole-resistant, >80% growth inhibition, visual scoring, read-out: MIC80 C. glabrata ATCC No. 48435
[4] = Azole-resistant, >80% growth inhibition, visual scoring

Compound | Cidal vs Static (Candida strain TW17) | MIC80 [1, 3] | MIC80 [2, 4] | cell toxicity (Vero (kidney) cells; 100× MIC) | cell toxicity (Hep G2 (liver) cells; 100× MIC) | activity against azole-resistant isolates (in words) (Candida spp.; azole-resistant isolates) | MIC80 TW17 [2, 4] | cell toxicity (Vero (kidney) cells; 5 times the MIC) | MIC80 C. glabrata ATCC No. 48435 [1, 4] | antifungal activity (in words) (Candida spp.) | cell toxicity (Vero (kidney) cells; through 10× MIC) | cell toxicity (Hep G2 (liver) cells; through 10× MIC) | cell toxicity (Hep G2 (liver) cells; 5× MIC) | colonies observed in time-kill assay (Candida strain TW17) | MIC80 ([1]; ATCC48435, read-out: MIC80 C. glabrata ATCC No. 48435) | MIC80 [2]
Cc1ccc(O)c(/C=N/NC(=O)c2ccccn2)c1 [AR2, (E)-N′-(2-Hydroxy-5-methylbenzylidene)picolinohydrazide] | Static | 2 µg/mL (≈ 7.83 µM) | 8 µg/mL (≈ 31.3 µM) | minimal toxicity | minimal toxicity | – | – | – | – | – | – | – | – | – | – | –
O=C(NN=Cc1cc([N+](=O)[O-])ccc1O)c1cccnc1 [AR12] | Static | – | – | – | – | less active | 8 µg/mL (≈ 27.9 µM) | elevated toxicity | – | – | – | – | – | – | – | –
O=C(NN=Cc1cc([N+](=O)[O-])ccc1O)c1ccncc1 [AR18] | Static | – | – | minimal cytotoxicity | minimal cytotoxicity | – | 8 µg/mL (≈ 27.9 µM) | – | 31 µg/mL (≈ 108 µM) | most potent | not toxic | not toxic | – | – | – | –
O=C(N/N=C/c1cc(Br)ccc1O)c1ccc[n+]([O-])c1 [AR27] | fungistatic; also recorded: Static | 4 µg/mL (≈ 11.9 µM) | 8 µg/mL (≈ 23.8 µM) | – | – | – | – | cytotoxic | – | – | – | – | cytotoxic | – | – | –
C(=N\Nc1ccccc1)/c1cccnc1 [AR44] | fungicidal; also recorded: Cidal | 16 µg/mL (≈ 81.1 µM) | 8 µg/mL (≈ 40.6 µM) | toxic | toxic | – | – | – | – | moderate antifungal activity | no cell toxicity | no cell toxicity | – | no observed colonies | – | –
C(=N\Nc1ccccc1)/c1ccncc1 [AR48] | fungicidal; also recorded: Cidal | – | – | toxic | toxic | – | – | – | – | moderate antifungal activity | no cell toxicity | no cell toxicity | – | no observed colonies | 4 µg/mL (≈ 20.3 µM) | 8 µg/mL (≈ 40.6 µM)
